Experimental data reported in patent US20080038228A1, “Method” (Danisco A/S, priority 2003, published 2008).
Entries after “also recorded” stand apart in the source; their conditions may differ.

Assays:
[1] = tested on: indomethacin-induced gastrointestinal damage; test: Rat model of indomethacin-induced gastrointestinal damage, damage area (Experiment 3); format: in vivo; conditions: male Wistar rats
Text: (§1) A previously described rat model was used to study indomethacin-induced gastrointestinal damage (see Meddings and Gibbons, Gastroenterology 1998; 114:83-92). Briefly, male Wistar rats were used and ten rats were included in each treatment group. Five different treatments were included: control group with no indomethacin treatment, indomethacin control group with no intervention treatment, indomethacin with 10^8 Bifidobacterium per rat, indomethacin with 10^10 Bifidobacterium per rat, and indomethacin with betaine (200 mg/rat). A single dose of indomethacin (10 mg/kg) was given p.o. preceded by a seven-day intervention with or without Bifidobacterium or betaine. In addition, a mixture of sucrose, lactulose, mannitol and sucralose was given p.o to measure gastrointestinal (GI) permeability. Urine samples were obtained at 16 hours after the challenge with indomethacin and prior to sacrificing the animals. Mucosa of the stomach and the intestine were examined by a pathologist and tissue samples of healthy-appearing mucosa for RNA isolation were collected from stomach, proximal and distal small intestine, caecum and proximal and distal colon. RNA was isolated and expression of cyclooxygenase-1 and -2 (COX-1 and COX-2, respectively) were determined by QPCR.

[2] = tested on: gastrointestinal (GI) permeability; test: Gastrointestinal permeability, urine concentrations of marker sugars in indomethacin-challenged rats (Experiment 3); format: in vivo, rat; conditions: male Wistar rats, single dose 10 mg/kg p.o., urine at 16 hours
Text: as §1

[3] = tested on: cyclooxygenase 2 gene expression in Caco2 cells; test: Caco-2 cell-based exposure test, Cox-2 gene expression (Experiment 1: selected metabolites and co-cultured bacterium); design: species or system human; conditions: 24 hour treatment, metabolites 5 mM, bacterium co-cultured in membrane insert
Experimental: (§2) The human colorectal carcinoma cell line Caco-2 was grown at 37° C. and 5% CO2 in serum-free Dulbeccos' MEM (Gibco) supplemented with 1 mM sodium pyruvate (Gibco) and 1× non-essential amino acids (Gibco) (DMEM). When grown without added bacteria, 20 Uml^−1 penicillin (Gibco), 20 μgml^−1 streptomycin (Gibco) and 0.5 μgml^−1 amphotericin (Gibco) were added to the medium. Bifidobacterium sp. 420 was grown anaerobically for 48 hours at 37° C. in a BIF medium consisting of 10 gl^−1 tryptic digest of casein peptone; 5 gl^−1 meat extract; 5 gl^−1 yeast extract; 10 gl^−1 glucose; 3 gl^−1 K2HPO4; 0.1% (volume/volume) Tween 80; 1% ascorbic acid and 0.05% cysteine-HCl; pH 6.8. 2 ml of logarithmic phase culture was centrifuged at 4000 rpm for 3 minutes. The cell pellet was suspended in 1.6 ml DMEM. The production of short chain organic acids by the bacterium was tested from fresh and conditioned bifidobacterium medium using gas chromatography.
To determine the effects of various treatments on the Cox-1/Cox-2 expression pattern, approximately 500 000 Caco-2 cells/well were seeded on 24-well cell culture plates. The cells were allowed to attach for 24 hours, after which the media were replaced by fresh media (total volume 1 ml/well) containing either no other added components than the ones described above (control treatments, with and without antibiotics) or antibiotic supplemented media with 5 mM sodium butyrate; 5 mM sodium propionate; 5 mM sodium acetate or 5 mM sodium lactate. In addition, wells were prepared that contained no antibiotics but a 0.2 μm anopore membrane tissue culture insert (Nunc, Denmark) into which 100 μl of the bacterial suspension described above was added.
After 24 hour exposure, media and culture inserts were discarded, cells were lysed and RNA was extracted using Qiagen's (Germany) RNEasy Mini Kit DNA was digested using the same manufacturer's RNase free DNase. Reverse transcription was performed using the High Capacity cDNA Archive Kit (Applied Biosystems, USA) according to the instructions provided by the manufacturer. Cox-1/Cox-2 expression patterns were determined by real-time quantitative TaqMan PCR (Holland et al., 1991 Proc. Natl. Acad. Sci. USA August 15; 88(16): 7276-80; and Livak and Scmittgen, 2001 Methods December; 25(4):402-8) using the default settings of an ABIPrism 7000 Sequence Detection instrument (Applied Biosystems).

[4] = tested on: cyclooxygenase 1 gene expression in Caco2 cells; test: Caco-2 cell-based exposure test, Cox-1 gene expression (Experiment 1: selected metabolites and co-cultured bacterium); design: species or system human; conditions: 24 hour treatment, metabolites 5 mM, bacterium co-cultured in membrane insert
Experimental: as §2, with “The production of short chain organic acids by the bacterium was tested from fresh and conditioned bifidobacterium medium using gas chromatography.” left out
(§3) After 24 hour exposure, media and culture inserts were discarded, cells were lysed and RNA was extracted using Qiagen's (Germany) RNEasy Mini Kit DNA was digested using the same manufacturer's RNase free DNase. […] Cox-1/Cox-2 expression patterns were determined by real-time quantitative TaqMan PCR (Holland et al., 1991 Proc. Natl. Acad. Sci. USA August 15; 88(16): 7276-80; and Livak and Scmittgen, 2001 Methods December; 25(4):402-8) using the default settings of an ABIPrism 7000 Sequence Detection instrument (Applied Biosystems).

[5] = tested on: Cox-1/Cox-2 expression pattern in Caco-2 cells; test: Cox-1/Cox-2 ratio and expression pattern in Caco-2 cells; format: cell-based, human; conditions: Experiment 1, Caco-2 cells, 24 hour exposure
Experimental: To determine the effects of various treatments on the Cox-1/Cox-2 expression pattern, approximately 500 000 Caco-2 cells/well were seeded on 24-well cell culture plates. The cells were allowed to attach for 24 hours, after which the media were replaced by fresh media (total volume 1 ml/well) containing either no other added components than the ones described above (control treatments, with and without antibiotics) or antibiotic supplemented media with 5 mM sodium butyrate; 5 mM sodium propionate; 5 mM sodium acetate or 5 mM sodium lactate. […]
as §3
Two bifidobacteria (Bifidobacterium sp. 420 and Bifidobacterium longum 913) were cultured as described in Experiment 1. […] Bacterial growth was stopped by chilling confluent cultures on ice, after which cell densities were determined by flow cytometry (FACS Calibur, Becton Dickinson). […]

Cox-2 expression = conditions: according to prior art; cited from earlier work
[6] = tested on: indomethacin-induced gastrointestinal damage; test: Combined live Bifidobacterium and betaine in indomethacin-challenged rats, damage area (Experiment 4); format: in vivo, rat; conditions: Experiment 4, indomethacin-challenged male Wistar rats; Bifidobacterium 10^10 and betaine 200 mg daily per animal; preliminary investigations
Experimental: Male Wistar rats as described previously in Experiment 3 above are split into the following treatment groups: a control, an indomethacin challenge group as a control, and treatment groups 3-5, which receive intervention treatment by live Bifidobacterium (10^10 daily dose per animal) and betaine (200 mg of daily dose per animal) either separately or in combination. Damage is determined from the sacrificed rats only.

Compound | Cox-2 gene expression level, fold change in relation to the control [3] | Cox-1 gene expression level, fold change in relation to the control [4] | Cox-1/Cox-2 ratio / expression pattern (FIG. 1) [5] | effect on Cox-2 expression (Cox-2 expression) | also measured
COc1ccc2c(c1)c(CC(=O)O)c(C)n2C(=O)c1ccc(Cl)cc1 [Indomethacin, indomethacin] | – | – | – | – | gross pathological changes (ulceration) ([1]; single dose 10 mg/kg p.o.): induced ulceration mainly to fundic stomach, but also to pyloric stomach; urine concentrations of marker sugars after the challenge [2]: significant increase
CC(O)C(=O)[O-].[Na+] (centres unmarked) [lactate, sodium lactate] | 0.74 fold change | 0.91 fold change | – | – | –
CC(=O)[O-].[Na+] [acetate, sodium acetate] | 1.17 fold change | 2.08 fold change | – | – | –
CCCC(=O)[O-].[Na+] [butyrate, sodium butyrate] | 0.15 fold change | – | increase | lowering effect | –
C[N+](C)(C)CC(=O)[O-] [Betaine, trimethylglycine] | – | – | – | – | pathological damage area ([1]; seven-day intervention, then indomethacin 10 mg/kg p.o.): tendency to decrease; also recorded: somewhat reduced; damage area in the gastrointestinal tract [6]: tends to decrease
CCC(=O)[O-].[Na+] [propionate, sodium propionate] | 0.36 fold change | – | increase | lowering effect | –
